Source: ChEMBL document CHEMBL3217475, “INPHARMA-based identification of ligand binding site in fragment-based drug design” (Medchemcomm, 2012)

Test: Inhibition of glycogen phosphorylase (unknown origin) by INPHARMA method
Parameters: species or system Homo sapiens

CN1CC[C@H](c2c(O)cc(O)c3c(=O)cc(-c4ccccc4Cl)oc23)[C@H](O)C1 [ALVOCIDIB]
IC50: 1 µM

Cn1c(=O)c2c(ncn2C)n(C)c1=O [CAFFEINE]
IC50: 100 µM
